# Measurements published in patent US11752196B2, “Treatment of pyroptosis” (priority 2018, dated 2023).
# Tested on: GSDMD cleavage in Huh7 hepatocytes
# Experiment: LPS-induced pyroptosis (GSDMD cleavage) in Huh7 hepatocytes pre-treated with tunicamycin and/or very low-dose LPS
# Format: cell-based, Human
# Settings: tunicamycin and/or LPS 1 μg/ml for 24 hours, then LPS 30 μg/ml
# Protocol: FIG. 13—LPS-dependent pyroptosis in hepatocytes and priming by ER stress.
# All measurements were performed in triplicate.
# In addition to hepatocyte ER stress, increased levels of circulating endotoxin are detected in advanced liver disease. Therefore, to determine the importance of hepatocyte ER stress and low-level endotoxin exposure as mediators of upregulation of the caspase-4/11 pathway, Huh7 hepatocytes were pre-treated with the ER stress inducer, tunicamycin and/or very low-dose LPS (1 μg/ml) for 24 hours, prior to the LPS ‘hit’ (30 μg/ml) (FIG. 13). […] Importantly, in these experiments hepatocyte pyroptosis was independent of the TLR4 pathway, as GSDMD cleavage was not inhibited by the TLR4 antagonist TAK-242. Caspase-11 deficient mice are protected from hepatic and extra-hepatic organ injury in ACLF Casp11^−/− mice are deficient in the caspase-11 pathway, but the caspase-1 pathway remains intact. Casp11^−/− mice develop a similar level of advanced fibrosis/cirrhosis compared to wildtype (wt) after treatment with 20 doses of CCl4 (FIG. 14A).
smiles,measurement,value
CCOC(=O)C1=CCCC[C@H]1S(=O)(=O)Nc1ccc(F)cc1Cl [TAK-242],GSDMD cleavage (inhibition by TLR4 antagonist),not inhibited
